The source of these data is ChEMBL document CHEMBL1140622, “Structure based de novo design of novel glycogen synthase kinase 3 inhibitors” (Bioorg Med Chem, 2007).

The nature of this assay: Inhibition of GSK3.

On to `CN1CCN(c2cnc(NCCNc3ccc([N+](=O)[O-])c(N)n3)nc2-c2ccc(Cl)cc2Cl)C(=O)C1`, for which the IC50 turned out to be 4 nM.

On to `O=C1NC(=O)C(c2cnc3cccnn23)=C1c1cn2c3c(cccc13)CN(C(=O)N1CCCCC1)CC2` [BISARYLMALEIMIDE 1], for which the IC50 is 0.7 nM.

As to `O=C1NC(=O)C(c2cncc3ccoc23)=C1c1cn2c3c(cccc13)CN(C(=O)N1CCOCC1)CC2` [BISARYLMALEIMIDE 2], it took 0.8 nM to reach half-maximal inhibition (IC50).

Take `CN(C)CCCn1cc(C2=C(c3c[nH]c4ccccc34)C(=O)NC2=O)c2ccccc21` [GF-109203]: the IC50 was determined as 190 nM.

On to `CC(=O)NC1=NC(=O)/C(=C2\CCNC(=O)c3c2cc(Br)n3C(C)=O)N1` [HYMENIALDISINE 2], for which it took 130 nM to reach half-maximal inhibition (IC50).

The compound `CC(=O)O/N=C1/C(=C2/C(=O)Nc3cc(Cl)c(Cl)cc32)Nc2ccccc21` [INDIRUBIN 1] returned an IC50 of 4 nM.

With `O=C1Nc2ccc(Br)cc2/C1=C1/Nc2ccccc2/C1=N\O` [INDIRUBIN 2], the IC50 was found to be 5 nM.

The compound `O=C1NC(=O)C2=C1c1cn(c3ccccc13)CCOCCOCCOCCn1cc2c2cccnc21` [INDOLYLYLMALEIMIDE 1] yielded an IC50 of 17 nM.

Take `O=C1NC(=O)C2=C1c1cn(c3ccccc13)CCOCCOCCOCCn1cc2c2ccccc21` [INDOLYLYLMALEIMIDE 2]: the IC50 was determined as 22 nM.

In the case of `COc1cccc(Nc2nccc(-c3cnn4ncccc34)n2)c1` [PYRAZOLOPYRIDAZINE 1], 10 nM corresponded to half-maximal inhibition (IC50).

`COc1ccc(Nc2nccc(-c3cnn4ncccc34)n2)cc1OC` [PYRAZOLOPYRIDAZINE 2] registered an IC50 of 12 nM.

With `CN(C)CCNC(=O)c1ccc(/C=N/Nc2ncnc3c2cnn3-c2cccc3[nH]cnc23)cc1` [PYRAZOLOPYRIMIDINE 1], the “Log IC50” value was -8.8.

In the case of `COc1cccc(-n2ncc3c(N/N=C/c4ccc(S(C)(=O)=O)cc4)ncnc32)c1` [PYRAZOLOPYRIMIDINE 2], the “Log IC50” value was -8.6.
